Assays:
bedstraw = experiment: Test B pre/postemergence bedstraw; assay type: in vivo, Galium aparine
Method in brief: (§1)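 Test chemicals in a non-phytotoxic solvent mixture with surfactant were sprayed preemergence onto planted seeds and postemergence onto plants 2 to 18 cm tall (1- to 4-leaf stage). After twelve to sixteen days in a greenhouse, injury was visually rated against untreated controls from 0 (no effect) to 10 (complete control).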

blackgrass = experiment: Test B pre/postemergence blackgrass; assay type: in vivo, Alopecurus myosuroides
Method in brief: as §1

surinam grass = experiment: Test B pre/postemergence surinam grass; assay type: in vivo, Brachiaria decumbens
Method in brief: as §1

cocklebur = experiment: Test B pre/postemergence cocklebur; assay type: in vivo, Xanthium strumarium
Method in brief: as §1

corn = experiment: Test B pre/postemergence corn; assay type: in vivo, Zea mays
Method in brief: as §1

giant foxtail = experiment: Test B pre/postemergence giant foxtail; assay type: in vivo, Setaria faberii
Method in brief: as §1

morningglory = experiment: Test B pre/postemergence morningglory; assay type: in vivo, Ipomoea hederacea
Method in brief: as §1

pigweed = experiment: Test B pre/postemergence pigweed; assay type: in vivo, Amaranthus retroflexus
Method in brief: as §1

rape = experiment: Test B pre/postemergence rape; assay type: in vivo, Brassica napus
Method in brief: as §1

soybean = experiment: Test B pre/postemergence soybean; assay type: in vivo, Glycine max
Method in brief: as §1

sugar beet = experiment: Test B pre/postemergence sugar beet; assay type: in vivo, Beta vulgaris
Method in brief: as §1

velvetleaf = experiment: Test B pre/postemergence velvetleaf; assay type: in vivo, Abutilon theophrasti
Method in brief: as §1

purple nutsedge = experiment: Test B pre/postemergence purple nutsedge; assay type: in vivo, Cyperus rotundus
Method in brief: as §1

smallflower flatsedge = experiment: Test B flood test smallflower flatsedge; assay type: in vivo, Cyperus difformis
Method in brief: (§2)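 Flood test on plants grown to the 2-leaf stage; treated plants kept in greenhouse twelve to sixteen days, then visually rated against controls on a 0 (no effect) to 10 (complete control) scale.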

duck salad = experiment: Test B flood test duck salad; assay type: in vivo, Heteranthera limosa
Method in brief: as §2

bamyardgrass = experiment: Test B flood test barnyardgrass; assay type: in vivo, Echinochloa crus-galli
Method in brief: as §2

[1] = Postemergence, Rate 62 g/ha, scale 0 to 10, 0 is no effect, 10 is complete control
[2] = Postemergence, Rate 250 g/ha, scale 0 to 10, 0 no effect, 10 complete control
[3] = Preemergence, Rate 62 g/ha, scale 0 to 10 (0 no effect, 10 complete control)
[4] = Preemergence, Rate 125 g/ha, scale 0 to 10 (0 no effect, 10 complete control)
[5] = Preemergence, Rate 250 g/ha, scale of 0 to 10 where 0 is no effect and 10 is complete control
[6] = Preemergence, Rate 500 g/ha, scale 0 (no effect) to 10 (complete control)
[7] = Rate 125 g/ha, Postemergence, scale 0 to 10, 0 no effect, 10 complete control
[8] = Rate 500 g/ha, Postemergence, scale 0 to 10, 0 no effect, 10 complete control
[9] = Rate 125 g/ha, Postemergence section (flood test species), scale 0 to 10, 0 no effect, 10 complete control
[10] = Rate 500 g/ha, listed under Postemergence (flood test species), scale 0 to 10, 0 no effect, 10 complete control
[11] = flood test, listed under Postemergence, Rate 250 g/ha, scale 0 to 10, 0 no effect, 10 complete control

SMILES: COc1cccc(C)c1-n1c(=O)on(C(=O)N(c2ccc(F)cc2F)C(C)C)c1=O [Compound 74]
- Bedstraw plant response rating (bedstraw; [1]): 0
- Bedstraw plant response rating (bedstraw; [2]): 5
- Bedstraw plant response rating (bedstraw; [3]): 0
- Plant response rating, Bedstraw (bedstraw; [4]): 0
- Plant response rating, Bedstraw (bedstraw; [5]): 0
- Bedstraw plant response rating (bedstraw; [6]): 0
- Bedstraw plant response rating (bedstraw; [7]): 0
- Bedstraw plant response rating (bedstraw; [8]): 8
- Blackgrass plant response rating (blackgrass; [1]): 0
- Blackgrass plant response rating (blackgrass; [2]): 0
- Blackgrass plant response rating (blackgrass; [3]): 0
- Plant response rating, Blackgrass (blackgrass; [4]): 0
- Plant response rating, Blackgrass (blackgrass; [5]): 0
- Blackgrass plant response rating (blackgrass; [6]): 0
- Blackgrass plant response rating (blackgrass; [7]): 0
- Blackgrass plant response rating (blackgrass; [8]): 3
- B. signalgrass plant response rating (surinam grass; [1]): 0
- B. signalgrass plant response rating (surinam grass; [2]): 0
- B. signalgrass plant response rating (surinam grass; [3]): 0
- Plant response rating, B. signalgrass (surinam grass; [4]): 0
- Plant response rating, B. signalgrass (surinam grass; [5]): 0
- B. signalgrass plant response rating (surinam grass; [6]): 0
- B. signalgrass plant response rating (surinam grass; [7]): 0
- B. signalgrass plant response rating (surinam grass; Rate 500 g/ha, Postemergence, scale of 0 to 10 where 0 is no effect and 10 is complete control): 2
- Cocklebur plant response rating (cocklebur; [1]): 0
- Cocklebur plant response rating (cocklebur; [2]): 0
- Cocklebur plant response rating (cocklebur; [3]): 0
- Plant response rating, Cocklebur (cocklebur; [4]): 0
- Plant response rating, Cocklebur (cocklebur; [5]): 0
- Cocklebur plant response rating (cocklebur; [6]): 0
- Cocklebur plant response rating (cocklebur; [7]): 0
- Cocklebur plant response rating (cocklebur; [8]): 4
- Corn plant response rating (corn; [1]): 0
- Corn plant response rating (corn; [2]): 0
- Corn plant response rating (corn; [3]): 0
- Plant response rating, Corn (corn; [4]): 0
- Plant response rating, Corn (corn; [5]): 0
- Corn plant response rating (corn; [6]): 0
- Corn plant response rating (corn; [7]): 0
- Corn plant response rating (corn; [8]): 0
- Giant foxtail plant response rating (giant foxtail; [1]): 0
- Giant foxtail plant response rating (giant foxtail; [3]): 3
- Plant response rating, Giant foxtail (giant foxtail; [4]): 7
- Plant response rating, Giant foxtail (giant foxtail; [5]): 8
- Giant foxtail plant response rating (giant foxtail; [6]): 10
- Giant foxtail plant response rating (giant foxtail; [7]): 0
- Giant foxtail plant response rating (giant foxtail; [8]): 2
- Morningglory plant response rating (morningglory; [1]): 2
- Morningglory plant response rating (morningglory; [2]): 3
- Morningglory plant response rating (morningglory; [3]): 0
- Plant response rating, Morningglory (morningglory; [4]): 0
- Plant response rating, Morningglory (morningglory; [5]): 0
- Morningglory plant response rating (morningglory; [6]): 0
- Morningglory plant response rating (morningglory; [7]): 2
- Morningglory plant response rating (morningglory; [8]): 4
- Redroot pigweed plant response rating (pigweed; [1]): 0
- Redroot pigweed plant response rating (pigweed; [2]): 0
- Redroot pigweed plant response rating (pigweed; [3]): 0
- Plant response rating, Redroot pigweed (pigweed; [4]): 0
- Plant response rating, Redroot pigweed (pigweed; [5]): 0
- Redroot pigweed plant response rating (pigweed; [6]): 3
- Redroot pigweed plant response rating (pigweed; [7]): 0
- Redroot pigweed plant response rating (pigweed; [8]): 0
- Rape plant response rating (rape; [1]): 0
- Rape plant response rating (rape; [2]): 0
- Rape plant response rating (rape; [3]): 0
- Plant response rating, Rape (rape; [4]): 0
- Plant response rating, Rape (rape; [5]): 0
- Rape plant response rating (rape; [6]): 5
- Rape plant response rating (rape; [7]): 0
- Rape plant response rating (rape; [8]): 2
- Soybean plant response rating (soybean; [1]): 0
- Soybean plant response rating (soybean; [2]): 1
- Soybean plant response rating (soybean; [3]): 0
- Plant response rating, Soybean (soybean; [4]): 0
- Plant response rating, Soybean (soybean; [5]): 0
- Soybean plant response rating (soybean; [6]): 0
- Soybean plant response rating (soybean; [8]): 1
- Sugarbeets plant response rating (sugar beet; [1]): 0
- Sugarbeets plant response rating (sugar beet; [2]): 0
- Sugarbeets plant response rating (sugar beet; [3]): 0
- Plant response rating, Sugarbeets (sugar beet; [4]): 0
- Plant response rating, Sugarbeets (sugar beet; [5]): 2
- Sugarbeets plant response rating (sugar beet; [6]): 4
- Sugarbeets plant response rating (sugar beet; [7]): 0
- Sugarbeets plant response rating (sugar beet; [8]): 0
- Velvetleaf plant response rating (velvetleaf; [1]): 2
- Velvetleaf plant response rating (velvetleaf; [2]): 4
- Velvetleaf plant response rating (velvetleaf; [3]): 0
- Plant response rating, Velvetleaf (velvetleaf; [4]): 0
- Plant response rating, Velvetleaf (velvetleaf; [5]): 0
- Velvetleaf plant response rating (velvetleaf; [6]): 0
- Velvetleaf plant response rating (velvetleaf; [7]): 4
- Velvetleaf plant response rating (velvetleaf; [8]): 4
- Nutsedge plant response rating (purple nutsedge; [1]): 0
- Nutsedge plant response rating (purple nutsedge; [2]): 0
- Nutsedge plant response rating (purple nutsedge; [3]): 0
- Plant response rating, Nutsedge (purple nutsedge; [4]): 0
- Plant response rating, Nutsedge (purple nutsedge; [5]): 0
- Nutsedge plant response rating (purple nutsedge; [6]): 0
- Nutsedge plant response rating (purple nutsedge; [7]): 0
- Nutsedge plant response rating (purple nutsedge; [8]): 0
- S. Flatsedge plant response rating (smallflower flatsedge; [1]): 0
- S. Flatsedge plant response rating (smallflower flatsedge; [9]): 0
- S. Flatsedge plant response rating (smallflower flatsedge; [10]): 0
- S. Flatsedge plant response rating (smallflower flatsedge; [11]): 0
- Ducksalad plant response rating (duck salad; [1]): 0
- Ducksalad plant response rating (duck salad; [9]): 0
- Ducksalad plant response rating (duck salad; [10]): 0
- Ducksalad plant response rating (duck salad; [11]): 0
- Barnyardgrass plant response rating (bamyardgrass; [1]): 0
- Barnyardgrass plant response rating (bamyardgrass; [9]): 0
- Barnyardgrass plant response rating (bamyardgrass; [10]): 0
- Barnyardgrass plant response rating (bamyardgrass; [11]): 0
